What all share (format): cell-based
For assay [1], the system named is NCI-H460 non-small cell carcinoma cells. Put plainly: Cytotoxicity (sulphorodamine B) on NCI-H460 tumour cells. The settings on record: Homo sapiens. The protocol:
(§1) To test the effects of the compounds on cell growth, NB4 human promyelocytic leukaemia, NCI-H460 non-small cell carcinoma cells and HCT-116 human colon carcinoma cells were used. NB4 and NCI-H460 tumour cells were grown RPMI 1640 containing 10% fetal bovine serum (GIBCO), whereas HCT-116 tumour cells were grown in McCoy's 5A containing 10% fetal bovine serum (GIBCO).
(§2) Tumour cells were seeded in 96-well tissue culture plates (Corning) at approximately 10% confluence and were allowed to attach and recover for at least 24 h. Varying concentrations of the drugs were then added to each well to calculate their IC50 value (the concentration which inhibits the 50% of cell survival). The plates were incubated for 24 h at 37° C. At the end of the treatment, for NB4 tumour cells in suspension, the procedure was performed as follows: medium culture was removed by centrifugation of the plates at 1600×g for 10 min and the surnatant was removed. 250 μl PBS were added, then the plates were centrifuged at 1600×g for 10 min, the surnatant was removed. 200 μl/well of medium culture RPMI 1640 containing 10% FCS were added and the plates were incubated at 37° C. for other 48 h. The plates were centrifuged again at 1600×g for 10 min, the medium culture was removed and 200 μl PBS and 50 μl of cold 80% TCA were added. The plates were incubated on ice for at least 1 h. TCA was removed, the plates were washed 3 times for immersion in distilled-water and dried on paper and at 40° C. for 5 min. Then 200 μl of 0.4% sulphorodamine B in 1% acetic acid were added. The plates were incubated at room temperature for other 30 min. Sulphorodamine B was removed, the plates were washed for immersion in 1% acetic acid for 3 times, then they were dried on paper and at 40° C. for 5 min. Then 200 μl Tris 10 mM were added, the plates were kept under stirring for 20 min. The survival cell was determined as optical density by a Multiskan spectrofluorimeter at 540 nm. For the tumour cells in adhesion (NCI-H460 and HCT-116), the procedure was as above mentioned, except that at the end of the treatment, the plates were washed by remotion of the surnatant and addition of PBS 3 times without centrifugation. Also the last day of the assay, the surnatant was removed without centrifugation.
(§3) The amount of cells killed was calculated as the percentage decrease in sulphorodamine B binding compared with control cultures. The IC50 values (the concentration which inhibits the 50% of cell survival) were calculated with the “ALLFIT” program.

Assay [2] deals with NB4 human promyelocytic leukaemia cells. In words: Cytotoxicity (sulphorodamine B) on NB4 tumour cells. The protocol:
as §1, §2, §3

Assay [3] concerns HCT-116 human colon carcinoma cells. Put plainly: Cytotoxicity (sulphorodamine B) on HCT-116 tumour cells. Particulars: HCT-116 cells, 24 h treatment then 48 h recovery, read-out: HCT-116 IC50 ± SD. The method, then:
as §1, §2, §3

Setting [4] is: NCI-H460 cells, 24 h treatment then 48 h recovery, sulphorodamine B, read-out: NCI-H460 IC50 ± SD.
Setting [5] is: Homo sapiens, NB-4, NB4 cells, 24 h treatment then 48 h recovery, sulphorodamine B, read-out: NB4 IC50 ± SD.
Where [6] appears, read: Homo sapiens, range stated jointly for NB4, NCI-H460 and HCT-116, minor cytotoxicity, read-out: IC50 values on NB4 or NCI-H460 and HCT-116 (range given).
[7] abbreviates: range stated jointly for NCI-H460 non-small cell lung cancer and HCT-116 colon cancer, read-out: IC50 values on NCI-H460 and HCT-116 (range given).
The mark [8] stands for this setting: NB4 cells, 24 h treatment then 48 h recovery, sulphorodamine B, read-out: NB4 IC50 ± SD.

Read-outs that look alike come from different tables or passages of the source.

On to `O=C(CCC(c1c[nH]c2ccccc12)c1c[nH]c2ccccc12)NO` [ST2408, N-Hydroxy-4,4-bis-(1H-indol-3-yl)-butyramide], for which the IC50 – broadly, the concentration that inhibits the measured activity by half – in assay [1] (setting [4]) is 25900 ± 300 nM; in assay [2] (setting [5]), 14600 ± 600 nM; in assay [2] (setting [6]) it was 8800 to 88800 nM.
Take `O=C(CCCCCC(c1c[nH]c2ccccc12)c1c[nH]c2ccccc12)NO` [ST2741, 7,7-Bis-(1H-indol-3-yl)-heptanoic acid hydroxyamide]: the IC50 in assay [1] (setting [4]) was 1200 ± 100 nM; in assay [1] (setting [7]) it was 600 to 5800 nM; in assay [3], 600 ± 20 nM; in assay [2] (setting [5]), 400 to 2300 nM; in assay [2] (setting [8]), 600 ± 10 nM.
`O=C(CCCC(c1c[nH]c2ccccc12)c1c[nH]c2ccccc12)NO` [ST2743, 5,5-Bis-(1H-indol-3-yl)-pentanoic acid hydroxyamide]: the figures for the 50% inhibitory concentration (IC50) in assay [1] (setting [4]) and in assay [2] (setting [6]) were 88800 ± 2800 nM and 8800 to 88800 nM, respectively.
Take `O=C(CCCCC(c1c[nH]c2ccccc12)c1c[nH]c2ccccc12)NO` [ST2754, 6,6-Bis-(1H-indol-3-yl)-hexanoic acid hydroxyamide]: the IC50 in assay [1] (setting [4]) is 5200 ± 300 nM; in assay [1] (setting [7]) it was 600 to 5800 nM; in assay [3], 5800 ± 200 nM.
Consider `O=C(C=Cc1ccc(C(c2c[nH]c3ccccc23)c2c[nH]c3ccccc23)cc1)NO` [ST2887, 3-{4-[Bis-(1H-indol-3-yl)-methyl]-phenyl}-N-hydroxy-acrylamide], for which the IC50 was 2600 ± 300 nM in assay [1] (setting [4]); 600 to 5800 nM in assay [1] (setting [7]); 3900 ± 500 nM in assay [3]; 400 to 2300 nM in assay [2] (setting [5]); 600 ± 10 nM in assay [2] (setting [8]).
With `O=C(CCCCCCC(c1c[nH]c2ccccc12)c1c[nH]c2ccccc12)NO` [ST2889, 8,8-Bis-(1H-indol-3-yl)-octanoic acid hydroxyamide], the IC50 in assay [1] (setting [4]) was 2700 ± 200 nM; in assay [1] (setting [7]) it was 600 to 5800 nM; in assay [3], 3500 ± 200 nM.
On to `O=C(CCCCCc1c[nH]c2ccccc12)NO` [ST2995, N-hydroxy-6-(1H-indol-3-yl)hexanamide], for which the IC50 was 22000 ± 1700 nM in assay [1] (setting [4]), 8800 ± 500 nM in assay [2] (setting [5]) and 8800 to 88800 nM in assay [2] (setting [6]).
For the compound `COc1cccc2c(C(CCCCCC(=O)NO)c3c[nH]c4c(OC)cccc34)c[nH]c12` [ST3043, 7,7-Bis-(7-methoxy-1H-indol-3-yl)-heptanoic acid hydroxyamide], the half-inhibitory concentration (IC50) in assay [1] (setting [4]) was 550 ± 30 nM; in assay [1] (setting [7]), 270 to 700 nM; in assay [3], 410 ± 30 nM; in assay [2] (setting [5]) it was 400 to 2300 nM; in assay [2] (setting [8]), 800 ± 10 nM.
As for `Cc1ccc2[nH]cc(C(CCCCCC(=O)NO)c3c[nH]c4ccc(C)cc34)c2c1` [ST3044, 7,7-Bis-(5-methyl-1H-indol-3-yl)-heptanoic acid hydroxyamide], the IC50 was 510 ± 100 nM in assay [1] (setting [4]), 270 to 700 nM in assay [1] (setting [7]), 270 ± 10 nM in assay [3] and 150 nM in assay [2] (setting [5]).
Take `O=C(CCCCCC(c1c[nH]c2cccc(F)c12)c1c[nH]c2cccc(F)c12)NO` [ST3052, 7,7-Bis-(4-fluoro-1H-indol-3-yl)-heptanoic acid hydroxyamide]: the IC50 was 700 ± 90 nM in assay [1] (setting [4]); 270 to 700 nM in assay [1] (setting [7]); 400 ± 100 nM in assay [3]; 400 to 2300 nM in assay [2] (setting [5]); 600 ± 90 nM in assay [2] (setting [8]).
In the case of `O=C(O)CCCCCC(c1c[nH]c2ccccc12)c1c[nH]c2ccccc12` [ST3127, 7,7-Bis-(1H-indol-3-yl)-heptanoic acid], the IC50 in assay [1] (setting [4]) was more than 20000 nM; in assay [3] it was more than 20000 nM; in assay [2] (setting [5]) it was more than 20000 nM; in assay [2] (setting [6]), 8800 to 88800 nM.
Turning to `O=C(CCCCCC(c1cc2ccccc2[nH]1)c1c[nH]c2ccccc12)NO` (centres unmarked) [ST3292, 7-(1H-Indol-3-yl)-7-(1H-indol-2-yl)-heptanoic acid hydroxyamide], the IC50 in assay [1] (setting [4]) is 820 ± 70 nM; in assay [1] (setting [7]), 600 to 5800 nM; in assay [2] (setting [5]) it was 400 to 2300 nM; in assay [2] (setting [8]), 670 ± 10 nM.
As to `O=C(CCCCCC(C1C=Nc2ccc(CN3CCOCC3)cc21)C1C=Nc2ccc(CN3CCOCC3)cc21)NO` (centres unmarked) [ST3307, 7,7-Bis-(5-morpholin-4-ylmethyl-3H-indol-3-yl)-heptanoic acid hydroxyamide], the IC50 in assay [1] (setting [4]) is 1100 ± 100 nM; in assay [1] (setting [7]), 600 to 5800 nM; in assay [2] (setting [5]), 400 to 2300 nM; in assay [2] (setting [8]), 420 ± 20 nM.

For the origin of these results see patent US8053460B2, “Indole derivatives having antitumor activity” (Sigma-Tau Industrie Farmaceutiche Riunite S.p.A., priority 2005, dated 2011).
